Source: patent US6737383B1, “Herbicidal oxadiazolidines” (priority 1999, dated 2004)

Legend:
bamyardgrass = experiment: Test B flood test barnyardgrass; format: in vivo, Echinochloa crus-galli
Summary of the method: (§1)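 Each value is a visual injury score relative to controls, with 10 meaning complete control and 0 no effect. Evaluation took place twelve to sixteen days after the 2-leaf-stage plants were treated and kept in the greenhouse.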

bedstraw = experiment: Test B pre/postemergence bedstraw; format: in vivo, Galium aparine
Summary of the method: (§2)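 Herbicidal effect was estimated by eye on a ten-point control scale after plants spent twelve to sixteen days in a greenhouse following soil or foliar treatment. Foliar sprays targeted plants at one to four leaves; all doses were formulated in a non-phytotoxic solvent with surfactant.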

wheat = experiment: Test B pre/postemergence wheat; format: in vivo, Triticum aestivum
Summary of the method: as §2

rape = experiment: Test B pre/postemergence rape; format: in vivo, Brassica napus
Summary of the method: as §2

velvetleaf = experiment: Test B pre/postemergence velvetleaf; format: in vivo, Abutilon theophrasti
Summary of the method: as §2

smallflower flatsedge = experiment: Test B flood test smallflower flatsedge; format: in vivo, Cyperus difformis
Summary of the method: as §1

blackgrass = experiment: Test B pre/postemergence blackgrass; format: in vivo, Alopecurus myosuroides
Summary of the method: as §2

duck salad = experiment: Test B flood test duck salad; format: in vivo, Heteranthera limosa
Summary of the method: as §1

pigweed = experiment: Test B pre/postemergence pigweed; format: in vivo, Amaranthus retroflexus
Summary of the method: as §2

morningglory = experiment: Test B pre/postemergence morningglory; format: in vivo, Ipomoea hederacea
Summary of the method: as §2

soybean = experiment: Test B pre/postemergence soybean; format: in vivo, Glycine max
Summary of the method: as §2

wild oat = experiment: Test B pre/postemergence wild oat; format: in vivo, Avena fatua
Summary of the method: as §2

sugar beet = experiment: Test B pre/postemergence sugar beet; format: in vivo, Beta vulgaris
Summary of the method: as §2

rice = experiment: Test B flood test rice; format: in vivo, Oryza sativa
Summary of the method: as §1

giant foxtail = experiment: Test B pre/postemergence giant foxtail; format: in vivo, Setaria faberii
Summary of the method: as §2

purple nutsedge = experiment: Test B pre/postemergence purple nutsedge; format: in vivo, Cyperus rotundus
Summary of the method: as §2

[1] = Rate 62 g/ha, headed Pre-emergence (flood test species), scale 0 to 10 (0 no effect, 10 complete control)
[2] = Rate 125 g/ha, Pre-emergence, flood test species, scale 0 to 10 where 0 is no effect and 10 is complete control
[3] = Rate 250 g/ha, headed Pre-emergence (flood test species), scale 0 to 10 (0 no effect, 10 complete control)
[4] = Rate 500 g/ha, headed Pre-emergence (flood test species), scale 0 to 10 (0 no effect, 10 complete control)
[5] = Postemergence, Rate 62 g/ha, scale 0 to 10, 0 is no effect, 10 is complete control
[6] = Postemergence, Rate 250 g/ha, scale 0 to 10, 0 no effect, 10 complete control
[7] = Preemergence, Rate 62 g/ha, scale 0 to 10 (0 no effect, 10 complete control)
[8] = Preemergence, Rate 125 g/ha, scale 0 to 10 (0 no effect, 10 complete control)
[9] = Preemergence, Rate 250 g/ha, scale of 0 to 10 where 0 is no effect and 10 is complete control
[10] = Preemergence, Rate 500 g/ha, scale 0 (no effect) to 10 (complete control)
[11] = Rate 125 g/ha, Postemergence, scale 0 to 10, 0 no effect, 10 complete control
[12] = Rate 500 g/ha, Postemergence, scale 0 to 10, 0 no effect, 10 complete control

CCN(Cc1ccccc1)C(=O)n1oc(=O)n(-c2c(C)cccc2C)c1=O [Compound 70]
0: Barnyardgrass plant response rating (bamyardgrass; [1]) | Barnyardgrass plant response rating (bamyardgrass; [2]) | Barnyardgrass plant response rating (bamyardgrass; [3]) | Plant response rating, Barnyardgrass (bamyardgrass; [4]) | Bedstraw plant response rating (bedstraw; [5]) | Bedstraw plant response rating (bedstraw; [6]) | Bedstraw plant response rating (bedstraw; [7]) | Plant response rating, Bedstraw (bedstraw; [8]) | Plant response rating, Bedstraw (bedstraw; [9]) | Bedstraw plant response rating (bedstraw; [10]) | Bedstraw plant response rating (bedstraw; [11]) | Bedstraw plant response rating (bedstraw; [12]) | Wheat plant response rating (wheat; [5]) | Wheat plant response rating (wheat; [6]) | Wheat plant response rating (wheat; [7]) | Plant response rating, Wheat (wheat; [8]) | Plant response rating, Wheat (wheat; [9]) | Wheat plant response rating (wheat; [10]) | Wheat plant response rating (wheat; [11]) | Wheat plant response rating (wheat; [12]) | Rape plant response rating (rape; [5]) | Rape plant response rating (rape; [6]) | Rape plant response rating (rape; [7]) | Plant response rating, Rape (rape; [8]) | Plant response rating, Rape (rape; [9]) | Rape plant response rating (rape; [10]) | Rape plant response rating (rape; [11]) | Rape plant response rating (rape; [12]) | Velvetleaf plant response rating (velvetleaf; [5]) | Velvetleaf plant response rating (velvetleaf; [6]) | Velvetleaf plant response rating (velvetleaf; [7]) | Plant response rating, Velvetleaf (velvetleaf; [8]) | Plant response rating, Velvetleaf (velvetleaf; [9]) | Velvetleaf plant response rating (velvetleaf; [10]) | Velvetleaf plant response rating (velvetleaf; [11]) | Velvetleaf plant response rating (velvetleaf; [12]) | S. Flatsedge plant response rating (smallflower flatsedge; [1]) | S. Flatsedge plant response rating (smallflower flatsedge; [2]) | S. Flatsedge plant response rating (smallflower flatsedge; [3]) | Plant response rating, S. Flatsedge (smallflower flatsedge; [4]) | Blackgrass plant response rating (blackgrass; [5]) | Blackgrass plant response rating (blackgrass; [6]) | Blackgrass plant response rating (blackgrass; [7]) | Plant response rating, Blackgrass (blackgrass; [8]) | Plant response rating, Blackgrass (blackgrass; [9]) | Blackgrass plant response rating (blackgrass; [10]) | Blackgrass plant response rating (blackgrass; [11]) | Blackgrass plant response rating (blackgrass; [12]) | Ducksalad plant response rating (duck salad; [1]) | Ducksalad plant response rating (duck salad; [2]) | Ducksalad plant response rating (duck salad; [3]) | Plant response rating, Ducksalad (duck salad; [4]) | Redroot pigweed plant response rating (pigweed; [5]) | Redroot pigweed plant response rating (pigweed; [6]) | Redroot pigweed plant response rating (pigweed; [7]) | Plant response rating, Redroot pigweed (pigweed; [8]) | Plant response rating, Redroot pigweed (pigweed; [9]) | Redroot pigweed plant response rating (pigweed; [10]) | Redroot pigweed plant response rating (pigweed; [11]) | Redroot pigweed plant response rating (pigweed; [12]) | Morningglory plant response rating (morningglory; [5]) | Morningglory plant response rating (morningglory; [6]) | Morningglory plant response rating (morningglory; [7]) | Plant response rating, Morningglory (morningglory; [8]) | Plant response rating, Morningglory (morningglory; [9]) | Morningglory plant response rating (morningglory; [10]) | Morningglory plant response rating (morningglory; [11]) | Morningglory plant response rating (morningglory; [12]) | Soybean plant response rating (soybean; [5]) | Soybean plant response rating (soybean; [6]) | Soybean plant response rating (soybean; [7]) | Plant response rating, Soybean (soybean; [8]) | Plant response rating, Soybean (soybean; [9]) | Soybean plant response rating (soybean; [10]) | Soybean plant response rating (soybean; [11]) | Soybean plant response rating (soybean; [12]) | Wild oats plant response rating (wild oat; [5]) | Wild oats plant response rating (wild oat; [6]) | Wild oats plant response rating (wild oat; [7]) | Plant response rating, Wild oats (wild oat; [8]) | Plant response rating, Wild oats (wild oat; [9]) | Wild oats plant response rating (wild oat; [10]) | Wild oats plant response rating (wild oat; [11]) | Wild oats plant response rating (wild oat; [12]) | Sugarbeets plant response rating (sugar beet; [5]) | Sugarbeets plant response rating (sugar beet; [6]) | Sugarbeets plant response rating (sugar beet; [7]) | Plant response rating, Sugarbeets (sugar beet; [8]) | Plant response rating, Sugarbeets (sugar beet; [9]) | Sugarbeets plant response rating (sugar beet; [10]) | Sugarbeets plant response rating (sugar beet; [11]) | Sugarbeets plant response rating (sugar beet; [12]) | Rice plant response rating (rice; [1]) | Rice plant response rating (rice; [2]) | Rice plant response rating (rice; [3]) | Plant response rating, Rice (rice; [4]) | Giant foxtail plant response rating (giant foxtail; [5]) | Giant foxtail plant response rating (giant foxtail; [6]) | Giant foxtail plant response rating (giant foxtail; [7]) | Plant response rating, Giant foxtail (giant foxtail; [8]) | Plant response rating, Giant foxtail (giant foxtail; [9]) | Giant foxtail plant response rating (giant foxtail; [10]) | Giant foxtail plant response rating (giant foxtail; [11]) | Giant foxtail plant response rating (giant foxtail; [12]) | Nutsedge plant response rating (purple nutsedge; [5]) | Nutsedge plant response rating (purple nutsedge; [6]) | Nutsedge plant response rating (purple nutsedge; [7]) | Plant response rating, Nutsedge (purple nutsedge; [8]) | Plant response rating, Nutsedge (purple nutsedge; [9]) | Nutsedge plant response rating (purple nutsedge; [10]) | Nutsedge plant response rating (purple nutsedge; [11]) | Nutsedge plant response rating (purple nutsedge; [12])
